{"source": "patent US6017958A", "about": "“Method of treating malignant tumors with thyroxine analogues having no significant hormonal activity” (Octamer, Inc., priority 1997, dated 2000)", "key": {"[1]": {"test_system": "HeLa (cervical cancer)", "test": "Cytocidal action/growth inhibition, HeLa", "assay_type": "cell-based", "conditions": "Homo sapiens, 72 h", "procedure": "(§1) Seven human cancer cell lines were obtained from the American Tissue Culture Collection (Rockville, Md.) and maintained in the recommended growth media. Cells were seeded into wells (2 cm^2) at a density of 2×10^4 cells/cm^2. Various concentrations of Compounds 1-13 were added to the media at the time of seeding.\n(§2) The cultures were incubated for 72 hours at 37° C. (5% CO2 atmosphere). Following incubation, cells were detached with trypsin and counted in a hemocytometer.\n(§3) I100 designates the concentration at which no viable cells remained; I50 the concentration at which 50% viable cells remained, as compared to a control.\n(§4) E-ras 20 cells were cultured as reported, Bauer et al., 1996, \"Modification of growth related enzymatic pathways and apparent loss of tumorigenicity of a ras-transformed bovine endothelial cell line by treatment with 5-iodo-6-amino-1,2-benzopyrone (INH2 BP)\" Intl. J. Oncol. 8:239-252; HT-144 (melanoma), DU-145 (prostatic cancer), HeLa (cervical cancer), HL 60 (promyelocytic leukemia), MDA-MB-231 (mammary cancer), SK-Br-3 (mammary cancer), T47D (ductal mammary cancer), A559 (lung cancer) were obtained from American Type Culture Collection (Rockville, Md.) and cultured in prescribed media. The effect of DIME was tested in cultures with a starting cell density of 2×10^4 cells per cm^2 and comparison of the effect of DIME on cell growth (intact cells identified by Trypan blue exclusion) was assayed by direct cell counting after trypsinization in a hemocytometer 72 hours after drug addition.\n(§5) For DIME-exposure experiments cells were seeded into 2 cm^2 wells at a density of 2×10^4 cells/cm^2. DIME at various concentrations was added to the medium at the time of seeding. The cell cultures were then incubated for 3 days (37° C. in 5% at CO2 atmosphere)."}, "[2]": {"test_system": "MDA-MD-231 (mammary cancer)", "test": "Cytocidal action/growth inhibition, MDA-MB-231", "assay_type": "cell-based", "conditions": "Homo sapiens", "procedure": "as §1, §2, §3, §4, §5"}, "[3]": {"test_system": "T47D (ductal mammary cancer)", "test": "Cytocidal action/growth inhibition, T47D", "assay_type": "cell-based", "conditions": "Homo sapiens, 72 h", "procedure": "as §1, §2, §3, §4, §5"}, "[4]": {"test_system": "MDA-MD-231 cells", "test": "Inhibition of tumor cell growth", "assay_type": "cell-based, human", "conditions": "3 days, control 0.95", "procedure": "MDA-MD-231 human cancer cells were obtained from the American Tissue Culture Collection (Rockville, Md.) and maintained in the recommended growth media. Cells were grown in the presence of various concentrations of Compounds 1 and 14 for 3 days at 37° C."}, "[5]": {"test_system": "E-ras transformed bovine endothelial cells", "test": "Morphology of E-ras cells", "assay_type": "cell-based", "procedure": "E-ras transformed bovine endothelial cells (Bauer et al., 1996, Intl. J. Oncology 8:239-252) were exposed to 10 μM DIME for […]. The DIME-treated cells (10^5 or 10^6 cells/100 μL) were injected subcutaneously into nude mice and tumor progression followed for 25 days.\nMicroscopic morphology of E-ras cells was examined by techniques reported earlier, Mendeleyev et al., 1997, \"Structural Specificity and Tumoricidal Action of Methyl-3,5-Diiodo-4-(4'- Methoxyphenoxy) Benzoate (DIME),\" Intl. J. Oncol.,in press; Bauer et al., 1996, \"Modification of Growth Related Enzymatic Pathways and Apparent Loss of Tumorigenicity of a ras-Transformed Bovine Endothelial Cell Line\" by Treatment With 5-iodo-6-amino-1,2-benzopyrone (INH BP)."}, "[6]": {"test": "Serum half-life and bioavailability of 14C-DIME", "assay_type": "in vivo, mouse", "procedure": "Aliquots (50 μL) of blood were assayed in a liquid scintillation counter and data expressed as microgram-equivalents per mL. The blood level data were analyzed by the RSTRIP method (Micromath, Salt Lake City, Utah)."}, "[7]": {"test_system": "E-ras 20 cells", "test": "cells", "assay_type": "in vitro ADME, bovine", "conditions": "Bos taurus, 24 hours, read-out: Extracellular DIME (concentration that causes 100% growth inhibition)", "procedure": "Monolayer cultures in 9.6 cm^2 wells (3 ml medium) were exposed to [^14 C]-DIME (10.55 mCi/mmol) for 24 hours, then washed 7 times with 1 ml medium containing unlabeled DIME. The cells were dissolved in 1 ml of 4% Na2 CO3 and 0.2 M NaOH and radioactivity measured by scintillation counting. Cell volume was determined by hematocrit and cell counting from parallel wells treated with unlabeled DIME.\nA striking property of DIME is its apparent selectivity for tumors in vivo. We performed drug metabolism and cellular DIME uptake tests to further characterize this property. Incubation of cells in culture with [^14 DIME, under conditions described previously, Bauer et al., 1996, \"Modification of growth related enzymatic pathways and apparent loss of tumorigenicity of a ras-transformed bovine endothelial cell line by treatment with 5-iodo-6-amino-1,2-benzopyrone (INH2 BP)\" Intl. J. Oncol. […] As shown in Table 9 the tumorigenic transformed cells in general took up DIME more rapidly than nontransformed cells (CV-1) or cells that were less sensitive to killing-by DIME (e.g. E-ras 20). […] On the other hand homogenates of organs of normal mice actively metabolize (de-esterify) DIME as illustrated in Table 10."}, "[8]": {"conditions": "Table 4, read-out: I100 (no viable cells remained)"}, "[9]": {"conditions": "day 3, Table 11, read-out: I50 (day 3)"}}, "note": "Values joined by “and” are separate entries in the source; they are usually repeats but may differ in a detail not shown here. Equal values may be shown once. Read-outs that look alike come from different tables or passages of the source."}
{"smiles": "COC(=O)c1cc(I)c(Oc2ccc(OC)cc2)c(I)c1", "note": "[Compound 1, Methyl 3,5-diiodo-4-(4'-methoxyphenoxy)benzoate]", "values": [{"measurement": "IC50", "setting": "[1]; Table 4, read-out: I50", "result": 600, "unit": "nM"}, {"measurement": "IC100", "setting": "[1]; [8]", "result": 3.5, "unit": "µM"}, {"measurement": "IC50", "setting": "[1]; [9]", "result": 600, "unit": "nM"}, {"measurement": "IC50", "setting": "[2]; MDA-MB-231, 72 h, day 3, Table 11, read-out: I50 (day 3)", "result": 400, "unit": "nM"}, {"measurement": "IC50", "setting": "[2]; MDA-MB-231, 72 h, Table 4, read-out: I50", "result": 400, "unit": "nM"}, {"measurement": "IC100", "setting": "[2]; MDA-MB-231, 72 h, Table 4, read-out: I100 (no viable cells remained)", "result": 3, "unit": "µM"}, {"measurement": "IC50", "setting": "[3]; Table 4, read-out: I50", "result": 700, "unit": "nM"}, {"measurement": "IC100", "setting": "[3]; [8]", "result": 3.5, "unit": "µM"}, {"measurement": "IC50", "setting": "[3]; [9]", "result": 700, "unit": "nM"}, {"measurement": "Cells (growth)", "setting": "[4]; 0.5 μM", "result": "0.20 ×10^6"}, {"measurement": "Cells (growth)", "setting": "[4]; 1.0 μM", "result": "0.10 ×10^6"}, {"measurement": "Cells (growth)", "setting": "[4]; 2.0 μM", "result": "0.09 ×10^6"}, {"measurement": "cell morphology", "setting": "[5]; 4 μM, 18-24 hrs, E-ras 20 cells", "result": "tumor cells enlarged and, as especially visible at 300-fold magnification, numerous micronuclei appeared"}, {"measurement": "micronucleation", "setting": "[5]; 10 μM, 3 days", "result": "induced extensive micronucleation"}, {"measurement": "i.v. serum half-life (t1/2)", "setting": "[6]; i.v., 24.5 mg/kg", "result": "2 to 2.5", "unit": "h"}, {"measurement": "oral bioavailability", "setting": "[6]; oral 126 mg/kg vs i.v. 24.5 mg/kg, listed as DIME, 126 mg/kg", "result": "83% and 87%"}, {"measurement": "half-life (t1/2)", "setting": "[6]; serum", "result": "2 to 2.5", "unit": "h"}, {"measurement": "IC100", "setting": "[7]", "result": 10, "unit": "µM"}]}
